From US11498920B2, “4-(1H-imidazol-5-yl)-1H-pyrrolo[2, 3-b] pyridines for use in the treatment of leukaemias, lymphomas and solid tumors” (MASARYKOVA UNIVERZITA, priority 2018, dated 2022)

Experiments:
[1] = test system: Maver-1 cells (mantle cell lymphoma); assay: Cytotoxicity, TMRE flow cytometry viability, Maver-1 cells (Example II.1); type: cell-based; conditions: Homo sapiens, Maver1, 24 hours, TMRE positive cells normalized to control, ratio to PF670462, <1 = higher cytotoxicity than PF670462, read-out: Viability of cells, Compound of formula I (100 μM), relative to PF670462 (100 μM), Maver-1 cells (mantle cell lymphoma)
Description: (§1) The leukemia and lymphoma-derived cell lines [MEC-1 cell line (derived from chronic lymphocytic leukemia—CLL), Nalm-16 (acute lymphocytic leukemia—ALL), K562 (chronic myeloid leukemia—CML), HL-60 (acute myeloid leukemia—AML), Maver-1 and Mino (mantle cell lymphoma—MCL), BL-41 (Burkitt lymphoma—BL), WSU-NHL (follicular lymphoma—FL), SUDHL (diffuse large B-cell lymphoma—DLBCL)], primary CLL cells and nonmalignant control primary cells were cultured in suspension in flasks under the following conditions: RPMI 1640 medium (Hyclone) supplemented with 10% fetal bovine serum (FBS, Gibco) and 1% penicillin/streptomycin (Life Technologies), 37° C., 5% CO2 and 95% relative humidity, with optimal culture cell density 5×10^6 cells/mL in case of primary cells and 0.5-1×10^6 cells/mL in case of cell lines. The adherent cell lines [A375 (derived from malignant melanoma), MDA-MB-231 and MCF-7 (breast cancer), MIA-PA-CA and PANC1 (pancreatic cancer), PC3 (prostate cancer), OVCAR4 (ovarian cancer) and HEPG2 (hepatocellular carcinoma)] were cultured on plates under the same conditions using RPMI1640 or DMEM medium (Gibco) according to instructions provided by the distributor (DSMZ/ATCC).
(§2) Cytotoxicity of compounds of formula I was tested in two models representative for leukemia (primary CLL cells) and lymphoma (Maver-1 cells). The primary CLL cells and Maver-1 cells (MCL-derived) were incubated with inhibitors at 100 μM concentration or corresponding amount of solvent (DMSO, Sigma Aldrich) as 0.1×10^6 cells/200 μl per well in a 96-well plate. Experiments were performed in technical duplicates. Viability of cells was assessed after 6 hours in case of primary CLL cells and after 24 hours in case of Maver-1 cells.
(§3) Apoptosis-induced reduction of mitochondrial potential is detected as lower TMRE fluorescence. […] Relative values are presented, showing ratio to the effect of PF670462 (as the closest prior art). Relative value <1 indicates a higher cytotoxicity than PF670462.

primary CLL cells = assay: Cytotoxicity, TMRE flow cytometry viability, primary CLL cells (Example II.1); type: cell-based; conditions: Homo sapiens, CLL cell, 6 hours, TMRE positive cells normalized to control, ratio to PF670462, <1 = higher cytotoxicity than PF670462, read-out: Viability of cells, Compound of formula I (100 μM), relative to PF670462 (100 μM), CLL primary cells
Description: as §1, §2, §3

SMILES	viability at 100 µM [1]	viability at 100 µM (primary CLL cells)
Fc1cccc(-c2ncn(C3CCCCC3)c2-c2ccnc3[nH]ccc23)c1 [Preparative Example 1, 4-(1-cyclohexyl-4-(3-fluorophenyl)-1H-imidazol-5-yl)-1H-pyrrolo[2,3-b]pyridine]	6%	18%
Fc1ccccc1-c1ncn(C2CCCCC2)c1-c1ccnc2[nH]ccc12 [Preparative Example 2, 4-(1-cyclohexyl-4-(2-fluorophenyl)-1H-imidazol-5-yl)-1H-pyrrolo[2,3-b]pyridine]	32%	37%
Fc1ccc(-c2ncn(C3CCCCC3)c2-c2ccnc3[nH]ccc23)c(F)c1 [Preparative Example 4, 4-(1-cyclohexyl-4-(2,4-difluorophenyl)-1H-imidazol-5-yl)-1H-pyrrolo[2,3-b]pyridine]	21%	21%
Clc1cccc(-c2ncn(C3CCCCC3)c2-c2ccnc3[nH]ccc23)c1 [Preparative Example 5, 4-(4-(3-chlorophenyl)-1-cyclohexyl-1H-imidazol-5-yl)-1H-pyrrolo[2,3-b]pyridine]	54%	24%
Brc1cccc(-c2ncn(C3CCCCC3)c2-c2ccnc3[nH]ccc23)c1 [Preparative Example 6, 4-(4-(3-bromophenyl)-1-cyclohexyl-1H-imidazol-5-yl)-1H-pyrrolo[2,3-b]pyridine]	42%	37%
Clc1ccc(-c2ncn(C3CCCCC3)c2-c2ccnc3[nH]ccc23)c(Cl)c1 [Preparative Example 7]	84%	34%
c1ccc(-c2ncn(C3CCCCC3)c2-c2ccnc3[nH]ccc23)cc1 [Preparative Example 8]	4%	32%
Clc1ccc(-c2ncn(C3CCCCC3)c2-c2ccnc3[nH]ccc23)cc1 [Preparative Example 9, 4-(4-(4-chlorophenyl)-1-cyclohexyl-1H-imidazol-5-yl)-1H-pyrrolo[2,3-b]pyridine]	30%	50%
Brc1ccc(-c2ncn(C3CCCCC3)c2-c2ccnc3[nH]ccc23)cc1 [Preparative Example 10, 4-(4-(4-bromophenyl)-1-cyclohexyl-1H-imidazol-5-yl)-1H-pyrrolo[2,3-b]pyridine]	46%	61%
CC(C)(C)OC(=O)N1CCC(n2cnc(-c3ccc(F)cc3)c2-c2ccnc3[nH]ccc23)CC1 [Preparative Example 11, tert-butyl-4-(4-(4-fluorophenyl)-5-(1H-pyrrolo[2,3-b]pyridin-4-yl)-1H-imidazol-1-yl)piperidine-1-carboxylate]	6%	30%
CN1CCC(n2cnc(-c3ccc(F)cc3)c2-c2ccnc3[nH]ccc23)CC1 [Preparative Example 14, 4-(4-(4-fluorophenyl)-1-(1-methylpiperidin-4-yl)-1H-imidazol-5-yl)-1H-pyrrolo[2,3-b]pyridine]	70%	77%
Fc1ccc(-c2ncn(C3CCCCCC3)c2-c2ccnc3[nH]ccc23)cc1 [Preparative Example 19, 4-(1-cycloheptyl-4-(4-fluorophenyl)-1H-imidazol-5-yl)-1H-pyrrolo[2,3-b]pyridine]	33%	22%
Fc1ccc(-c2ncn(Cc3ccccc3)c2-c2ccnc3[nH]ccc23)cc1 [Preparative Example 22, 4-(1-benzyl-4-(4-fluorophenyl)-1H-imidazol-5-yl)-1H-pyrrolo[2,3-b]pyridine]	27%	17%
CC1(C)CC(Cn2cnc(-c3ccc(F)cc3)c2-c2ccnc3[nH]ccc23)C1 [Preparative Example 29, 4-(1-((3,3-dimethylcyclobutyl)methyl)-4-(4-fluorophenyl)-1H-imidazol-5-yl)-1H-pyrrolo[2,3-b]pyridine]	3%	21%
COC(=O)[C@H]1CC[C@@H](n2cnc(-c3ccc(F)cc3)c2-c2ccnc3[nH]ccc23)CC1 [Preparative Example 33, Methyl cis-4-(4-(4-fluorophenyl)-5-(1H-pyrrolo[2,3-b]pyridin-4-yl)-1H-imidazol-1-yl)cyclohexane-1-carboxylate]	12%	63%
COC(=O)[C@H]1CC[C@H](n2cnc(-c3ccc(F)cc3)c2-c2ccnc3[nH]ccc23)CC1 [Preparative Example 34, Methyl trans-4-(4-(4-fluorophenyl)-5-(1H-pyrrolo[2,3-b]pyridin-4-yl)-1H-imidazol-1-yl)cyclohexane-1-carboxylate]	89%	55%
CS(=O)(=O)N[C@H]1CC[C@H](n2cnc(-c3ccc(F)cc3)c2-c2ccnc3[nH]ccc23)CC1 [Preparative Example 79, N-(trans-4-(4-(4-fluorophenyl)-5-(1H-pyrrolo[2,3-b]pyridin-4-yl)-1H-imidazol-1-yl)cyclohexyl)methanesulfonamide]	–	86%
Fc1ccc(-c2ncn(Cc3ccncc3)c2-c2ccnc3[nH]ccc23)cc1 [Preparative Example 83, 4-(4-(4-fluorophenyl)-1-(pyridin-4-ylmethyl)-1H-imidazol-5-yl)-1H-pyrrolo[2,3-b]pyridine]	–	78%
Fc1ccc(-c2ncn(C34CCN(CC3)C4)c2-c2ccnc3[nH]ccc23)cc1 [Preparative Example 86, 4-(1-((1r,4r)-1-azabicyclo[2.2.1]heptan-4-yl)-4-(4-fluorophenyl)-1H-imidazol-5-yl)-1H-pyrrolo[2,3-b]pyridine]	–	76%
OC1(Cn2cnc(-c3ccc(F)cc3)c2-c2ccnc3[nH]ccc23)CCC1 [Preparative Example 91, 1-((4-(4-fluorophenyl)-5-(1H-pyrrolo[2,3-b]pyridin-4-yl)-1H-imidazol-1-yl)methyl)cyclobutan-1-ol]	69%	–
Cn1cc(Cn2cnc(-c3ccc(F)cc3)c2-c2ccnc3[nH]ccc23)cn1 [Preparative Example 93]	75%	–
CN1CCC(O)(Cn2cnc(-c3ccc(F)cc3)c2-c2ccnc3[nH]ccc23)CC1 [Preparative Example 119, 4-((4-(4-fluorophenyl)-5-(1H-pyrrolo[2,3-b]pyridin-4-yl)-1H-imidazol-1-yl)methyl)-1-methylpiperidin-4-ol]	–	87%
Fc1ccc(-c2ncn(Cc3cscn3)c2-c2ccnc3[nH]ccc23)cc1 [Preparative Example 127, 4-((4-(4-fluorophenyl)-5-(1H-pyrrolo[2,3-b]pyridin-4-yl)-1H-imidazol-1-yl)methyl)thiazole]	72%	–
Fc1ccc(-c2ncn(Cc3cnsc3)c2-c2ccnc3[nH]ccc23)cc1 [Preparative Example 130, 4-((4-(4-fluorophenyl)-5-(1H-pyrrolo[2,3-b]pyridin-4-yl)-1H-imidazol-1-yl)methyl)isothiazole]	–	89%
Cn1ccc(Cn2cnc(-c3ccc(F)c(Cl)c3)c2-c2ccnc3[nH]ccc23)n1 [Preparative Example 143, 4-(4-(3-chloro-4-fluorophenyl)-1-((1-methyl-1H-pyrazol-3-yl)methyl)-1H-imidazol-5-yl)-1H-pyrrolo[2,3-b]pyridine]	–	66%
CC(c1cnn(C)c1)n1cnc(-c2ccc(F)cc2)c1-c1ccnc2[nH]ccc12 (stereo not drawn) [Preparative Example 145]	42%	–
Cc1ncc(Cn2cnc(-c3ccc(F)cc3)c2-c2ccnc3[nH]ccc23)s1 [Preparative Example 152, 5-((4-(4-fluorophenyl)-5-(1H-pyrrolo[2,3-b]pyridin-4-yl)-1H-imidazol-1-yl)methyl)-2-methylthiazole]	62%	–
O[C@H]1CCC[C@H](n2cnc(-c3ccc(F)cc3)c2-c2ccnc3[nH]ccc23)C1 [Preparative Example 158, (1S,3S)-3-(4-(4-fluorophenyl)-5-(1H-pyrrolo[2,3-b]pyridin-4-yl)-1H-imidazol-1-yl)cyclohexan-1-ol]	–	76%
Fc1ccc(-c2ncn(Cc3ccccc3)c2-c2ccnc3[nH]ccc23)nc1 [Preparative Example 184, 4-(1-benzyl-4-(5-fluoropyridin-2-yl)-1H-imidazol-5-yl)-1H-pyrrolo[2,3-b]pyridine]	57%	–
